# Laboratory results reported in publication PMC5884906, “Single Administration of HBK-15—a Triple 5-HT1A, 5-HT7, and 5-HT3 Receptor Antagonist—Reverses Depressive-Like Behaviors in Mouse Model of Depression Induced by Corticosterone” (Molecular Neurobiology, 2017).
# Marks after values point to notes of the source that are not given here.
# What was measured:
# [1] = target: T1, 5-HT3 receptors expressed in guinea pig ileum (Cavia porcellus, UniProt O70212); design: method as in PMID 25847619; settings: functional affinity; cited from earlier work
# T1 construct: A segment (15 cm) of male guinea pig ileum was excised from the small intestine; from tissue; host or cells: isolated male guinea pig ileum segments in an organ bath
# T1 sequence (O70212 20-490): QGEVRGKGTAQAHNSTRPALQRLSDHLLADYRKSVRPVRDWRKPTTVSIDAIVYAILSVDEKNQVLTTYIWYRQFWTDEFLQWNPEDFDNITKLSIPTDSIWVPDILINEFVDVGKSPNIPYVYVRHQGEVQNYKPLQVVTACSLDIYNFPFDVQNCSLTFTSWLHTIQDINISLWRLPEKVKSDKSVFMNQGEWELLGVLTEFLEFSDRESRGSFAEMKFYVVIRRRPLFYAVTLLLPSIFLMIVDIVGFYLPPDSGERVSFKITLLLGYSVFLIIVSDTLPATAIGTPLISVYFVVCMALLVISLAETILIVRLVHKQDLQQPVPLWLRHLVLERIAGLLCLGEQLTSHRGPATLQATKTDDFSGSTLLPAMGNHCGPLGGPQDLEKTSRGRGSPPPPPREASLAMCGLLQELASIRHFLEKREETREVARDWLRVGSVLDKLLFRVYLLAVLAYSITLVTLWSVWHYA
# [2] = test system: corticosterone-treated mice; assay: forced swim test, single administration, corticosterone model; assay type: in vivo; settings: single 1 mg/kg i.p., 30 min before the test
# Description: (§1) Mice were injected with corticosterone (s.c., 20 mg/kg) at random times during the light phase for consecutive 21 days (Fig. 1c). The dose and route of administration of corticosterone were based on studies performed by Zhao and colleagues. After the end of the procedure, next day 30 min before the test, corticosterone-treated mice were given (i.p.) saline, HBK-15 (1.25 mg/kg), fluoxetine (10 mg/kg), or ketamine (1 mg/kg) (Fig. 1c). Control mice received (i.p.) saline. The experimental groups consisted of eight randomly selected animals. We chose the dose of HBK-15 that was active in the chronic experiments (i.e., 1.25 mg/kg). The dose of ketamine was based on the studies performed by Pazini and colleagues. Animals were tested in the forced swim test and spontaneous locomotor activity test. After behavioral testing, mice were scarified and their hippocampi collected for biochemical analysis.
# Forced swim test was performed according to the method described by Porsolt and colleagues and previously described. Mice were placed individually for 6 min in glass cylinders (height 25 cm, diameter 10 cm) containing […] (23–25 °C). The total time of immobility was recorded during the final 4 min of the test. The experiments were recorded and scored using aLab.io software by a trained observer blind to the treatments.
# [3] = test system: corticosterone-treated mice; assay: spontaneous locomotor activity, single administration; assay type: in vivo; settings: single 1 mg/kg i.p. in corticosterone-treated mice; 4 min
# Description: as §1, with “After the end of the procedure, next day 30 min before the test, corticosterone-treated mice were given (i.p.) saline, HBK-15 (1.25 mg/kg), fluoxetine (10 mg/kg), or ketamine (1 mg/kg) (Fig. 1c).” left out
# The locomotor activity was performed as previously described. Locomotor activity was recorded individually for each mouse using activity cages made of clear Perspex (40 cm × 40 cm × 31 cm, Activity Cage 7441, Ugo Basile, Italy). The cages were supplied with I.R. horizontal beam emitters connected to a counter for the recording of light-beam interruptions. Each mouse was placed in a cage for a 30-min habituation period. After that time, the number of crossings of photobeams was measured for 6 min (chronic studies) or for 4 min (acute experiments; i.e., the time equal to the observation period in the forced swim test). The cages were disinfected with 70% ethanol after each mouse.
# [4] = test system: BDNF level in the hippocampus; assay: BDNF level in the hippocampus (ELISA), single administration; assay type: in vivo, mice; settings: single 1 mg/kg i.p., corticosterone-treated mice
# Description: as §1
# After the behavioral assessments, mice were sacrificed, and their brains were rapidly removed and chilled in an ice-cold saline solution. The hippocampi were dissected on a cold plate, frozen, and stored at −80 °C until assay. On the day of experiments, tissues were thawed on ice and homogenized (1:9 w/v) in phosphate-buffered saline (4 °C) and protease inhibitor cocktail was added. The 10% homogenates were prepared and homogenized for 30 s with TissueRuptor homogenizer. The homogenized tissues were centrifuged (2500×g at 4 °C for 20 min), and the supernatants were collected for further assays.
# Protein concentrations of BDNF and NGF in homogenates from hippocampi were determined using the enzyme-linked immunosorbent assay (ELISA) kits (BDNF: DZE201020014, SunRed Biotechnology Company; NGF: MBS825100, MyBioSource) according to the manufacturer’s instructions. […] The samples were analyzed in duplicates, and the mean concentrations were calculated. […] The intensity of the color was read at 450 nm. Absorbance was measured in a multifunction plate reader (POLARstar Omega, BMG Labtech, Germany). […]
Structure (SMILES),5-HT3 receptor pK B ± S.E.M [1],effect on corticosterone-induced increase in immobility [2],Number of crossings ± S.E.M [3],increase in BDNF level in the hippocampus compared with controls [4] [%]
Cc1nccn1CC1CCc2c(c3ccccc3n2C)C1=O (stereo not shown) [Ondansetron],7.111 ± 0.12^a,–,–,–
CNC1(c2ccccc2Cl)CCCCC1=O (stereo not shown) [ketamine],–,reversed an increase in immobility,248.7 ± 25.3,33
